Data as given in patent publication US7592373B2 (Boehringer Ingelheim International GmbH, priority 2003, dated 2009).
Structures can show the parent of a compound that is named as a salt.

What was measured:
hMCH-1R = target: T1, hMCH-1R (Homo sapiens, UniProt Q99705); test: MCH-1 receptor binding test (125I-MCH binding to hMCH-1R transfected cell membranes); settings: membranes of hMCH-1R transfected CHO/Galpha16 cells
T1 construct: expressed in transfected cells
Experimental: After the incubation the reaction is filtered using a cell harvester through 0.5% PEI treated fiberglass filters (GF/B, Unifilter Packard). The membrane-bound radioactivity retained on the filter is then determined after the addition of scintillator substance (Packard Microscint 20) in a measuring device (TopCount of Packard). […] The analysis of the concentration binding curve is carried out on the assumption of one receptor binding site.

[1] = animals treated with the antagonist; cited from earlier work
rats = settings: cited from earlier work

T1 sequence (Q99705 whole entry): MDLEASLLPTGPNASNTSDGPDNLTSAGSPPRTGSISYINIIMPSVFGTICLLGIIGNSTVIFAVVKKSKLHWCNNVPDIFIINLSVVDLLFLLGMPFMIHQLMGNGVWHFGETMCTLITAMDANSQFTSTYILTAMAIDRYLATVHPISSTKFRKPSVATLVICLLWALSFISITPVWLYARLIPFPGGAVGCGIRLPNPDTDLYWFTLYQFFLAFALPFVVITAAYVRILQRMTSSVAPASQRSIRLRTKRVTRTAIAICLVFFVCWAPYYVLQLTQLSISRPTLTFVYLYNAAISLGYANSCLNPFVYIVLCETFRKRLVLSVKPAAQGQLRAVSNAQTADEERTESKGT

Row | Structure (SMILES) | melting point | also measured
1 | CCN(CC)CCOc1ccc(NC(=O)C#Cc2ccc(Cl)cc2Cl)c(Cl)c1 [Example 4.8, 3-(2,4-dichlorophenyl)propynoic acid-[2-chloro-4-(2-diethylaminoethoxy)phenyl]amide] |  | IC50 (hMCH-1R): 50 nM
2 | CCN(CC)CCc1ccc(NC(=O)C#Cc2ccc(C(F)(F)F)cc2Cl)cc1 [Example 3.35, 3-(2-chloro-4-trifluoromethylphenyl)propynoic acid-[4-(2-diethylaminoethyl)phenyl]amide] | 145 to 150 °C | 
3 | CN(C(=O)C#Cc1ccc(CN2CCCC2)cc1)c1ccc(-c2ccc(Cl)cc2)cc1 [Example 1.23, 3-(4-pyrrolidin-1-ylmethylphenyl)propynoic acid-(4′-chlorobiphenyl-4-yl)methylamide] | 161 to 164 °C | IC50 (hMCH-1R): 7.5 nM
4 | CN(Cc1ccc(C#CC(=O)Nc2ccc(-c3ccc(Cl)cc3)cc2)cc1)CC1CC1 [Example 1.40] | 181 °C | 
5 | COc1ccc(-c2ccc(NC(=O)C#Cc3ccc(CN4CCCCC4)cc3)cc2)cc1 [Example 1.8, 3-(4-piperidin-1-ylmethylphenyl)propynoic acid-(4′-methoxybiphenyl-4-yl)amide] | 170 °C | 
6 | COc1ccc(-c2ccc(NC(=O)C#Cc3ccc(CN4CCC(Nc5ccccn5)CC4)cc3)cc2)cc1 [Example 1.11, 3-{4-[4-(pyridin-2-ylamino)piperidin-1-ylmethyl]phenyl}propynoic acid-(4′-methoxybiphenyl-4-yl)amide] | 196 to 197 °C | 
7 | COCC1=C(C(=O)OC)[C@H](c2ccc(F)c(F)c2)N(C(=O)NCCCN2CCC(c3cccc(NC(C)=O)c3)CC2)C(=O)N1 [SNAP-7941] |  | body weight in long term trials [1]: lose significant amounts of weight; effects in behavioral experiments (rats): anxiolytic and antidepressant effects
8 | CCN(CC)CCc1ccc(NC(=O)C#Cc2ccc(Cl)cc2Cl)cc1 (as salt: hydrochloride) [Example 3.34, 3-(2,4-dichlorophenyl)propynoic acid-[4-(2-diethylaminoethyl)phenyl]amide hydrochloride] | 204 to 208 °C | 
9 | COCCN(C)Cc1ccc(NC(=O)C#Cc2ccc(-c3ccc(Cl)cc3)cc2)cc1 [Example 3.11, 3-(4′-chlorobiphenyl-4-yl)propynoic acid-(4-{[(2-methoxyethyl)methylamino]methyl}phenyl)amide] | 130 to 133 °C | 

Continued, in another order:

Row | melting point | Structure (SMILES) | also measured
10 | 199 to 200 °C | COc1ccc(-c2ccc(NC(=O)/C=C/c3ccc(CN4CCCC4)cc3)cc2)cc1 [Example 5.1, (E)-N-(4′-methoxybiphenyl-4-yl)-3-(4-pyrrolidin-1-ylmethylphenyl)acrylamide] | IC50 (hMCH-1R): 20 nM
11 | 130 °C | O=C(C#Cc1ccc(Cl)cc1Cl)Nc1ccc2oc(CCN3CCCC3)nc2c1 [Example 4.12, 3-(2,4-dichlorophenyl)propynoic acid-[2-(2-pyrrolidin-1-ylethyl)benzoxazol-5-yl]amide] | 
12 | 168 to 169 °C | CN(Cc1ccc(/C=C/C(=O)Nc2ccc(-c3ccc(Cl)cc3)cc2)cc1)C1CCN(C(=O)OC(C)(C)C)CC1 [Example 5.35, tert-butyl 4-({-[(E)-2-(4′-chlorobiphenyl-4-ylcarbamoyl)vinyl]benzyl}methylamino)piperidine-1-carboxylate] | 
13 | 150 °C | COc1cc(NC(=O)C#Cc2ccc(C(F)(F)F)cc2Cl)ccc1OCCN1CCC(C(N)=O)CC1 [Example 4.276, 1-(2-{4-[3-(2-chloro-4-trifluoromethylphenyl)propynoylamino]-2-methoxyphenoxy}ethyl)piperidine-4-carboxylic acid amide] | 
14 | 165 °C | CN(CCCN)Cc1ccc(CCC(=O)Nc2ccc(-c3ccc(Cl)cc3)cc2)cc1 [Example 6.27, 3-(4-{[(3-aminopropyl)methylamino]methyl}phenyl)-N-(4′-chlorobiphenyl-4-yl)propionamide] | 
15 | 209 to 211 °C | COc1cc(NC(=O)C#Cc2ccc(C(F)(F)F)cc2Cl)ccc1OCCN1CCOCC1 [Example 4.273, 3-(2-chloro-4-trifluoromethylphenyl)propynoic acid-[3-methoxy-4-(2-morpholin-4-ylethoxy)phenyl]amide] | 
16 | 167 to 173 °C | CN(Cc1ccc(CCC(=O)Nc2ccc(-c3ccc(Cl)cc3)cc2)cc1)C1CCOCC1 [Example 6.12, N-(4′-chlorobiphenyl-4-yl)-3-(4-{[methyl-(tetrahydropyran-4-yl)amino]methyl}phenyl)propionamide] | 
17 | 158.5 to 160.5 °C | CC1CN(Cc2ccc(CCC(=O)Nc3ccc(-c4ccc(Cl)cc4)cc3)cc2)CC(C)O1 (stereo not drawn) [Example 6.21, N-(4′-chlorobiphenyl-4-yl)-3-[4-(2,6-dimethylmorpholin4-ylmethyl)phenyl]propionamide] | 
18 | 240 to 245 °C | CC1CCN(CCOc2ccc(NC(=O)C#Cc3ccc(C(F)(F)F)cc3Cl)cc2)CC1 (as salt: hydrochloride) [Example 3.45, 3-(2-chloro-4-trifluoromethylphenyl)propynoic acid {4-[2-(4-methylpiperidin-1-yl)ethoxy]phenyl}amide hydrochloride] | 
